US20250367225A1 (priority 2022, published 2025)

Key:
[1] = system: SARS-COV-2 Delta variant (B.1.617.2); set-up: species or system Syrian hamsters; details: hamster, in vivo
[2] = system: SARS-COV-2 Omicron BA.1 variant (B.1.1.529); set-up: species or system BALB/c mice; details: mouse, in vivo

## CCCCCCCCCCCCCC[C@@H](O)[C@@H](O)[C@H](CO[C@H]1O[C@H](CO)[C@H](O)[C@H](O)[C@H]1O)NC(=O)CCCCCCCCCCc1ccc(F)cc1 [7DW8-5]
[1]
  viral load in lung tissues: significantly decreased
  viral load in nasal tissues: significantly decreased
[2]
  body weight: significant weight gain
  virus replication in lung tissues: complete inhibition
